Earlier results as cited in patent US20240189475A1 (PUKYONG NATIONAL UNIVERSITY INDUSTRY-UNIVERSITY COOPERATION …, priority 2022, published 2024).

Conditions: background statement

**Q.** Which solubility in water does the source give for `CC(=O)c1c(O)c(C)c(O)c2c1OC1=CC(=O)C(C(C)=O)C(=O)C12C` (stereo not shown) [UA, usnic acid] here?
**A.** The solubility in water was “low solubility in water”.
